Test results reported in the OPERA property sets (Mansouri et al. 2018).

SMILES | logP
CCc1ssc(=S)c1-c1ccccc1 | 3.52
O=c1sscc1-c1ccccc1 | 2.64
S=c1ssc2c1CCCCCC2 | 3.75
CCCc1cssc1=O | 2.38
CCc1c(C)ssc1=S | 2.94
CCc1ssc(=O)c1-c1ccccc1 | 3.15
CCc1cssc1=S | 2.67
S=c1cc(-c2ccccc2)ss1 | 3.67
Cc1cssc1=S | 2.18
CCCc1cc(=S)ss1 | 2.83
O=c1ssc2ccccc12 | 2.73
S=c1ccss1 | 1.58
O=c1cc(-c2ccccc2)ss1 | 3.01
S=c1ssc2c1CCCCC2 | 3.27
CCc1cc(=S)ss1 | 2.31
CCc1cssc1=O | 1.9
Cc1ssc(=O)c1-c1ccccc1 | 2.93
CCCc1c(C)ssc1=S | 3.39
CCCCc1cssc1=S | 3.7
CCc1cc(=O)ss1 | 1.69
CCCc1cc(=O)ss1 | 2.24
CCc1ssc(=O)c1CC | 2.78
Cc1cc(=O)ss1 | 1.26
S=c1sscc1-c1ccccc1 | 3.2

SMILES | logP
CCCCCc1cssc1=S | 4.06
COc1ccc(-c2ssc(=S)c2C)cc1 | 4.1
CCc1ssc(=S)c1CC | 3.51
Cc1ssc(=S)c1Cc1ccccc1 | 3.78
Cc1c(-c2ccccc2)ssc1=S | 3.95
S=c1ssc2ccccc12 | 3.57
S=c1ssc2c1CCC2 | 2.53
CCc1ssc(=S)c1C | 2.95
S=c1cc(Cc2ccccc2)ss1 | 3.43
Cc1ssc(=S)c1-c1ccccc1 | 3.17
COc1ccc(-c2cc(=S)ss2)cc1 | 3.82
Cc1ccc(-c2cc(=S)ss2)cc1 | 4.26
O=c1ccss1 | 0.82
CCCc1ssc(=S)c1C | 3.42
Cc1ssc(=S)c1C | 2.45
CCCc1cssc1=S | 3.18
CCCc1ssc(=S)c1CC | 3.76
CCCc1c(C)ssc1=O | 2.96
Cc1ccc(-c2cssc2=S)cc1 | 3.73
Cc1cc(=S)ss1 | 1.89
Cc1ssc(=O)c1C | 1.73
Cc1cssc1=O | 1.33
O=c1ssc2c1CCCC2 | 2.4
